From publication PMC9405727, “A Setmelanotide-like Effect at MC4R Is Achieved by MC4R Dimer Separation” (Biomolecules, 2022)
Entries after “also recorded” stand apart in the source; their conditions may differ.

Columns and labels:
[1] = tested on: HEK293 cells; experiment: GloSensor cAMP accumulation, isoproterenol internal control in transfected cells; assay type: cell-based, human
Experimental: Gs signaling was measured using cAMP assay GloSensor™, enabling real-time measurements of cAMP accumulation. HEK293 cells were transfected with either MC4R-WT or chimeric receptors. […] Non-PTX-treated cells received 10 µL MEM without supplements (Gibco Minimum Essential Media, Waltham, MA, USA) per well at the same time point. Bioluminescence was quantified using a Berthold Microplate Reader (Mithras LB940, Berthold Technologies GmbH and Co., Bad Wildbad, Germany). […] Cells stimulated with 1 µM isoproterenol served as an internal control. GloSensor™ results were expressed as relative luminescence units (RLU). The total cAMP formation was assessed in the time–response curve by calculating the area under the curve (AUC).

[2] = tested on: MC4R/CB1R chimeric receptors; settings: COS-7 cells; cited from earlier work
Experimental: Results were based on cAMP accumulation assays in COS-7 cells. […] Experiments were performed using GloSensor^TM assay enabling dynamic live cell measurement of cAMP increase. In order to compare the results of this study with results previously achieved in COS-7 cells, we used the same ...

[3] = target: MC4R/CB1R chimeric receptor Chim 5 (substitution of ICL2) (UniProt P32245); experiment: FRET or BRET; NanoBRET in living HEK293 cells co-transfected with a NanoLuc fusion (donor; written as binder) and a HaloTag fusion (acceptor, ligand 618; written as target), NL/HT DNA ratio 1:5; BRET ratio in mBU after subtraction of the no-acceptor control; delta BRET = chimera minus MC4R-WT homodimer
[4] = tested on: receptor homodimer (MC4R-WT, CB1R, Chim 1-7, H158R); experiment: NanoBRET receptor homodimerization (BRET ratio, ΔBRET); settings: for nanoBRET rations, mean: difference to WT+WT, mean of the replicates; for Relative Dimerization Compared to WT: NanoBRET data from Figure 2 (ΔBRET = chimera minus MC4R-WT), HEK293, no agonist, three independent experiments in triplicate; for homodimerization compared to MC4R-WT: NanoBRET, HEK293, n = 3 in triplicate
Experimental: Cells were maintained in minimal essential medium (MEM, Gibco, Waltham, MA, USA) supplemented with 5% fetal bovine serum (FBS, Gibco, Waltham, MA, USA) and NEAA incubated at 37 °C in humidified air containing 5% CO2. For the BRET assays, 4 × 10^5 HEK293 cells per well were seeded in 6-well plates for transfection.
For BRET assays, HEK293 cells were transfected 4–6 h after seeding. Transfection was performed using 8 µL FuGene HD (Promega, Mannheim, Germany) and 1.4 µg DNA in Opti-MEM (Gibco, Waltham, MA, USA). […] In addition, 200 ng Carrier DNA (pGEM3Z) was added.
For graphical depiction the delta BRET was calculated (3) ΔBRET=BRETRatiochimeric receptor−BRETRatioWT−MC4R

[5] = tested on: receptor-receptor interaction (WT, Chim 7, H158R, CB1R); experiment: Donor saturation assay (DSA, NanoBRET), specificity of receptor-receptor interaction; assay type: cell-based, human; settings: for Bmax: DSA; for specificity of homodimer interaction: donor saturation assay, HEK293
Experimental: The interaction between MC4R-WT, CB1R, and the chimeric receptors was determined using NanoBRET™ (Promega, Mannheim, Germany). The receptors were either C-terminally tagged with HaloTag (HT) as an energy acceptor or C-terminally fused with NanoLuc (NL) as an energy donor. Then, 20 h after transfection, cells were detached from the wells and centrifuged at 130× g for 5 min and the pellet was resuspended in Opti-MEM (Gibco) without phenol red, supplemented with 4% FBS (Gibco). […] The cells were then reseeded into white opaque 96-well plates (Corning, Costar) and incubated for 4–6 h at 37° and 5% CO2. […] The BRET Ratio was calculated by dividing acceptor emission by donor emission. In order to correct for background bleedthrough, the background ratio (no acceptor DMSO control) was subtracted, and the unit was changed into miliBRET (mBU).
Supplements S1: Donor Saturation Assays (DSA) investigating the specificity of receptor-receptor interaction of WT, Chim7 and H158R.
Figure S1: Donor Saturation Assays (DSA) investigating the specificity of receptor-receptor interaction of WT, Chim7 and H158R. HEK293 cells were transfected with increasing amounts of acceptor while the amount of donor was held constant. A receptor interaction is called specific, if a saturation level (Bmax) can be achieved. This is represented by a […]
hyperbolic curve. […] WT-MC4R […]
served as positive control, CB1R was included as negative control as it is known not to […]
receptor interaction, represented by the black hyperbolic curve. The negative controls depict flat behavior. (B) Homodimerization of Chim 7 is depicted next to WT-MC4R homodimer formation. Interaction of Chim7 NL with CB1R HT served as negative control.
(C) Homodimerization of H158R is depicted next to positive and negative control. […] Data […]
represent three independent experiments each performed in triplicates. Values represent

[6] = target: MC4R-WT (Homo sapiens, UniProt P32245); experiment: NFAT luciferase reporter gene assay (PLC activation, Gq/11 signaling), MC4R-WT; settings: MC4R-WT + PTX (50 ng/mL, 18 h before stimulation), HEK293; mean ± SEM, two to nine experiments
MC4R-WT, sequence (P32245 whole entry): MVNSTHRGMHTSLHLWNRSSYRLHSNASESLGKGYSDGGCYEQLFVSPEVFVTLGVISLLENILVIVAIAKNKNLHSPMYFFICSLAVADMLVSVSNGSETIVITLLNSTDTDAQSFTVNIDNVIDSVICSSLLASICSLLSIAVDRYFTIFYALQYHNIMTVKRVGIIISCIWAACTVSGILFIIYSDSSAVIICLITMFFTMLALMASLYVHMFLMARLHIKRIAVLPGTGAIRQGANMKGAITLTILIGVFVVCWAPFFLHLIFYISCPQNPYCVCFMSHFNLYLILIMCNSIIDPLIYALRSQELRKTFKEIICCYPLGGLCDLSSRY
Experimental: Cells were maintained in minimal essential medium (MEM, Gibco, Waltham, MA, USA) supplemented with 5% fetal bovine serum (FBS, Gibco, Waltham, MA, USA) and NEAA incubated at 37 °C in humidified air containing 5% CO2. […] For the NFAT luciferase-based reporter gene assay, 1.5 × 10^4 cells per well were seeded in poly-L-lysine-coated (Gibco, Waltham, MA, USA) 96-well translucent plates (Falcon, Kaiserslautern, Germany) and incubated for 24 h.
For reporter gene assays, HEK293 cells were transfected 24 h after seeding with 45 ng plasmid DNA and 0.45 µL Metafectene (Biontex, Munich, Germany), according to the manufacturer’s protocol. […]
In order to determine phospholipase C (PLC) activation, luciferase-based reporter gene assays were conducted. […] Measurements were conducted by injecting 40 µL firefly luciferase substrate (Promega, Mannheim, Germany), and luminescence was determined with a plate reader (Mithras LB940). Signaling bias was analyzed using the formula described by Kenakin [27]:(4) Δlog(Emax/EC50)=log(Emax, A/EC50,A)−log(Emax, B/EC50, B) with A referring to the respective chimeric receptor and B being the reference (MC4R-WT). Emax was determined from concentration–response curves and depicts the maximal response (efficacy); EC50 describes the potency. Bias was further calculated, creating the antilog. […]

[7] = target: T1, MC4R-H158R (Homo sapiens, UniProt P32245, H158R); experiment: NFAT luciferase reporter gene assay (PLC activation, Gq/11 signaling), H158R; assay type: cell-based
T1 construct: expressed in transfected cells; host or cells: HEK293
T1 sequence (P32245 whole entry H158R): as the sequence (P32245 whole entry) above, with H158R counted along it

CC(C)NCC(O)c1ccc(O)c(O)c1 (centres unmarked) [Isop, isoproterenol]
cAMP AUC ([1]; cells transfected with Chim5, 1 µM isoproterenol, Assay 1): 1461897 | cAMP AUC ([1]; cells transfected with Chim5, 1 µM isoproterenol, Assay 2): 430167 | cAMP AUC ([1]; cells transfected with Chim5, 1 µM isoproterenol, Assay 3): 324823 | cAMP AUC ([1]; cells transfected with Chim5, 1 µM isoproterenol, Assay 4): 256187 | cAMP AUC ([1]; cells transfected with Chim6, 1 µM isoproterenol, Assay 1): 1327867 | cAMP AUC ([1]; cells transfected with Chim6, 1 µM isoproterenol, Assay 2): 379487 | cAMP AUC ([1]; cells transfected with Chim6, 1 µM isoproterenol, Assay 3): 230900 | cAMP AUC ([1]; cells transfected with Chim6, 1 µM isoproterenol, Assay 4): 310727 | cAMP AUC ([1]; cells transfected with Chim7, 1 µM isoproterenol, Assay 1): 786920 | cAMP AUC ([1]; cells transfected with Chim7, 1 µM isoproterenol, Assay 2): 473207 | cAMP AUC ([1]; cells transfected with Chim7, 1 µM isoproterenol, Assay 3): 236040 | cAMP AUC ([1]; cells transfected with Chim7, 1 µM isoproterenol, Assay 4): 192750 | cAMP AUC ([1]; cells transfected with WT, 1 µM isoproterenol, Assay 1): 803127 | cAMP AUC ([1]; cells transfected with WT, 1 µM isoproterenol, Assay 2): 589360 | cAMP AUC ([1]; cells transfected with WT, 1 µM isoproterenol, Assay 3): 380950 | cAMP AUC ([1]; cells transfected with WT, 1 µM isoproterenol, Assay 4): 376050

4-Norleucine, 7-D-phenylalanine-alpha-melanocyte-stimulating hormone [NDP-alpha-MSH]
stimulated cAMP levels of chimeric receptors compared to MC4R-WT [2]: higher

MC4R/CB1R chimeric receptor Chim 5 (substitution of ICL2) (from UniProt P32245 1-332)
Relative Dimerization Compared to WT (delta BRET) [3]: -41.8

MC4R-WT+MC4R-WT
nanoBRET rations, mean [4]: 0.000667

H158R: MC4R gain-of-function mutation located in ICL2 [Chim H158R]
Relative Dimerization Compared to WT [4]: −28.94 | homodimerization compared to MC4R-WT [4]: significantly impaired dimerization capacities | nanoBRET rations, mean [4]: -28.94 | Bmax ([5]; HEK293, run 20211107): 109.9 | Bmax ([5]; HEK293, run 20211130): 119.8 | Bmax ([5]; HEK293, run 20211202): 137.4 | specificity of homodimer interaction [5]: shows specific homodimer formation; also recorded: specific interaction

MC4R-WT: wild-type melanocortin 4 receptor
Relative Dimerization Compared to WT [4]: 0 | Bmax ([5]; HEK293, run 20210820): 129.2 | Bmax ([5]; HEK293, run 20210901): 118.3 | Bmax ([5]; HEK293, run 20210903): 124.8 | Bmax ([5]; HEK293, run 20210929): 127.1 | Bmax ([5]; HEK293, run 20211101): 143.5 | Bmax ([5]; HEK293, run 20211107): 109 | Bmax ([5]; HEK293, run 20211130): 120.4 | Bmax ([5]; HEK293, run 20211202): 130.7 | Bmax ([5]; HEK293, run 20211217): 122.3 | specificity of homodimer interaction [5]: specific interaction

CC(=O)N[C@@H](CCCNC(=N)N)C(=O)N[C@H]1CSSC[C@@H](C(N)=O)NC(=O)[C@H](Cc2c[nH]c3ccccc23)NC(=O)[C@H](CCCNC(=N)N)NC(=O)[C@@H](Cc2ccccc2)NC(=O)[C@H](Cc2c[nH]cn2)NC(=O)[C@@H](C)NC1=O [Setmelanotide]
Emax at 1 µM [6]: 70.26 ± 9.13 Fold over MC4R-WT Stimulated 1 µM | Emax at 1 µM ([7]; HEK293, H158R, 6 h at 37 °C, mean ± SEM, n = 4): 135.93 ± 17.16 Fold over MC4R-WT Stimulated 1 µM | Emax ([7]; bias Setmelanotide calculation): 135.93%

B1: CB1R: cannabinoid receptor type 1, negative control (protein)
chain: MKSILDGLADTTFRTITTDLLYVGSNDIQYEDIKGDMASKLGYFPQKFPLTSFRGSPFQEKMTAGDNPQLVPADQVNITEFYNKSLSSFKENEENIQCGENFMDIECFMVLNPSQQLAIAVLSLTLGTFTVLENLLVLCVILHSRSLRCRPSYHFIGSLAVADLLGSVIFVYSFIDFHVFHRKDSRNVFLFKLGGVTASFTASVGSLFLTAIDRYISIHRPLAYKRIVTRPKAVVAFCLMWTIAIVIAVLPLLGWNCEKLQSVCSDIFPHIDETYLMFWIGVTSVLLLFIVYAYMYILWKAHSHAVRMIQRGTQKSIIIHTSEDGKVQVTRPDQARMDIRLAKTLVLILVVLIICWGPLLAIMVYDVFGKMNKLIKTVFAFCSMLCLLNSTVNPIIYALRSKDLRHAFRSMFPSCEGTAQPLDNSMGDSDCLHKHANNAASVHRAAESCIKSTVKIAKVTMSVSTDTSAEAL
modifications: left off: NanoLuc, C-terminal, kept | HaloTag, C-terminal, kept
homodimerization compared to MC4R-WT [4]: decreased
